Source: patent publication US20230398087A1, “APPLICATION OF BZP IN TREATMENT OF ISCHEMIC CARDIOVASCULAR AND CEREBRAL VASCULAR DISEASES” (priority 2020, published 2023)

Tested on: acute global cerebral ischemia in rats
Assay: Acute global cerebral ischemia in rats, volume of cerebral infarction (nuclear magnetic resonance)
Type: in vivo
Details: BZP 0.75, 3, 12 and 24 mg/kg; Br-NBP 10.5 mg/kg; NBP-K 9.6 mg/kg; vs model group
Excerpt: 2.7 The Protective Effect of BZP on Acute Global Cerebral Ischemia in Rats: […]

Row | SMILES | volume of cerebral infarction
1 | CCCCC1OC(=O)c2cc(Br)ccc21 (centres unmarked) [Br-NBP, reference compound] | significantly reduce
2 | CCCCC(O)c1ccccc1C(=O)[O-].[K+] (centres unmarked) [NBP-K, reference compound] | significantly reduce
